Test results as given in PubChem BioAssay (NCI).
“And” between values parts separate entries of the source, which are not always exact repeats. Identical values can stand only once.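 Values below derive from 48-hour exposures of cells grown in 96-well plates, with endpoints linearly interpolated between the two concentrations bracketing the appropriate inhibition level. GI50 = concentration required for 50% inhibition of growth. At the TGI there is no net growth.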 Where a SMILES comes first, the peptide text is derived from it. [ ]: non-standard residue; d: D form. Ava = NCCCCC(=O)O; Mpa = O=C(O)CCS

Legend:
Test in all cases: NCI tumour cell line growth inhibition, 48 h
[1] = system: IGROV1 ovarian
[2] = system: SNB-75 CNS
[3] = system: U251 CNS
[4] = system: SNB-19 CNS
[5] = system: CAKI-1 renal
[6] = system: PC-3 prostate
[7] = system: HCT-15 colon
[8] = system: CCRF-CEM leukemia
[9] = system: HS 578T breast
[10] = system: KM12 colon

SMILES	TGI [1]	TGI [2]	TGI [3]	TGI [4]	TGI [5]	TGI [6]	TGI [7]	TGI [8]	TGI [9]	TGI [10]	GI50 [10]	GI50 [2]
O=S1(=O)OCCOS(=O)(=O)C1(F)Cc1ccccc1	> 100 µM	> 100 µM	> 100 µM	> 100 µM	> 100 µM	> 100 µM	> 100 µM	> 100 µM	> 100 µM			
CN1C/C(=C\c2cccs2)C2=NN(c3ccccc3)C(c3cccs3)C2C1 (stereo unspecified)	> 25.5 µM		> 100 µM	> 100 µM	> 100 µM	> 100 µM	> 100 µM	5.95 µM	> 100 µM	> 100 µM		
O=C1C=C(NCCc2ccc(O)c([N+](=O)[O-])c2)C(=O)c2[nH]cnc21	54.8 µM		> 100 µM	> 100 µM		> 100 µM	> 100 µM		> 100 µM	> 100 µM		
O=C(CC(C(=O)c1ccsc1)c1cccs1)c1ccccc1 (stereo unspecified)	> 100 µM	> 100 µM	> 100 µM		> 100 µM		> 100 µM	> 100 µM	> 100 µM	> 100 µM		
O=C(CCCc1cccc2[nH]c3c(c12)CN(Cc1ccccc1)CC3)c1ccc(F)cc1	> 100 µM	> 100 µM	> 100 µM	> 100 µM	> 100 µM	> 100 µM	> 100 µM	> 100 µM	> 100 µM	> 100 µM		
COc1ccc(C2CC(c3sc(Nc4ccc(C)cc4)nc3C)=NN2)cc1 (stereo unspecified)	> 56.9 µM	34.1 µM	28.4 µM	33.8 µM	41.2 µM		39.1 µM	54.7 µM		29.5 µM		
CCC1(O)C(=O)OCc2c1cc1n(c2=O)Cc2cc3cc4c(cc3nc2-1)OCO4 (stereo unspecified)	1.54 µM	0.0369 µM	0.183 µM	2.17 µM	0.046 µM	> 100 µM	19 µM		> 100 µM	5.69 µM	97.8 nM	
Cc1cccc2c(=O)c3cccc([C@H](C)C(=O)O)c3oc12	> 100 µM		> 100 µM	> 100 µM	> 100 µM	> 100 µM	> 100 µM	> 100 µM	> 100 µM	> 100 µM		
CCOC(=O)/C(C(N)=O)=C(\O)C(=O)/C=C(\O)c1ccc(Cl)cc1	36.2 µM	31 µM	29.1 µM	> 100 µM	64 µM	38.1 µM	34.8 µM	24.4 µM	> 100 µM	36.9 µM		
CC(=O)OCC1OC(n2c(C)c(C)cc(C#N)c2=S)C(OC(C)=O)C(OC(C)=O)C1OC(C)=O (stereo unspecified)	> 100 µM	> 100 µM	> 100 µM	> 100 µM	> 100 µM	> 100 µM	> 100 µM		> 100 µM	> 100 µM		17 µM and > 100 µM
O=C(N/N=C\c1ccc(Cl)cc1)Nc1ccc2ccccc2c1	> 100 µM	76.8 µM	63.5 µM	> 100 µM	> 100 µM	> 100 µM	> 100 µM	> 100 µM	76.9 µM	> 100 µM		
COc1cc(/C=C2\C(=O)N(c3cccc(NC(C)=O)c3)C(c3ccccc3)S2(=O)=O)cc(OC)c1OC (stereo unspecified)	> 100 µM	> 100 µM	> 100 µM	> 100 µM	> 100 µM	> 100 µM	> 100 µM	> 100 µM		> 100 µM		
CC(NC(=O)CCS)C(=O)NC(C)C(=O)NC(Cc1c[nH]c2ccccc12)C(=O)NC(Cc1c[nH]cn1)C(=O)NC(CO)C(=O)NC(Cc1c[nH]c2ccccc12)C(=O)NCCCCC(=O)NC(C)C(=O)NC(CCC(N)=O)C(=O)NC(CCCCN)C(=O)NC(C)C(=O)NC(CCCNC(=N)N)C(=O)NC(CCCCN)C(N)=O (stereo unspecified) ([Mpa]AAWHSW[Ava]AQKARK-NH2; configuration not given here)	> 100 µM	> 100 µM	> 100 µM	> 100 µM	> 100 µM	> 100 µM	> 100 µM	> 100 µM	> 100 µM	88.7 µM		
CC(=O)C1=C(C)N(c2ccccc2)C2(O)C3=C(C(=O)c4ccccc4C3=O)C(O)=CC12Cl (stereo unspecified)	8.25 µM	16.2 µM	50.1 µM	23.5 µM	27.2 µM	46.5 µM	> 100 µM	62.5 µM	15.2 µM	24.6 µM		
CC(C)(C)OC(=O)NC(CSCc1ccc(C(=O)c2ccccc2)cc1)C(=O)N1CCN(CCCCN2c3ccccc3Sc3cc(N=[N+]=[N-])ccc32)CC1 (stereo unspecified)	> 100 µM	> 100 µM	> 100 µM	> 100 µM	> 100 µM	> 100 µM	> 100 µM	> 100 µM	> 100 µM	> 100 µM		
CCC1(CC)C(=O)NC(=O)NC1=S	> 100 µM	> 100 µM	> 100 µM	> 100 µM			> 100 µM	> 100 µM				
COc1cc2c(cc1OC)C(CCN)=NCC2	52 µM	33 µM	30.8 µM	> 100 µM	25.2 µM	29.6 µM	38.9 µM	5.12 µM	59.9 µM	40.2 µM		
CCN(CC)CCC(=O)/C=C/c1ccc(Cl)c(Cl)c1			> 10 µM	> 10 µM		> 10 µM	> 10 µM	7.18 µM		> 10 µM		
CC1OC(NCCNCCNC2OC(C)C(O)C(O)C2O)C(O)C(O)C1O (stereo unspecified)	> 100 µM	> 100 µM	> 100 µM	> 100 µM		> 100 µM	> 100 µM		> 100 µM	> 100 µM		
O=[N+]([O-])c1ccc(C[P+]2(c3ccccc3)CCCCC2)cc1 (tested in a mixture with another compound)	> 100 µM	> 100 µM	> 100 µM	> 100 µM	> 100 µM		> 100 µM	> 100 µM		> 100 µM		
Cc1nc2c(Cl)cc(Cl)cc2c2c1CCO2	> 100 µM	> 100 µM	> 100 µM	> 100 µM	> 100 µM		> 100 µM	> 100 µM	> 100 µM	> 100 µM		
CC(O)C(CO)NC(=O)C1CSSCC(NC(=O)C(N)Cc2ccccc2)C(=O)NC(Cc2ccccc2)C(=O)NC(Cc2c[nH]c3ccccc23)C(=O)NC(CCCCN)C(=O)NC(C(C)O)C(=O)N1 (stereo unspecified)	> 100 µM	> 100 µM	> 100 µM	> 100 µM	> 100 µM	> 100 µM	> 100 µM	> 100 µM		> 100 µM		
CCC(C)C(Nc1c2ccccc2nc2c(C(=O)NCCN(C)C)cccc12)C(=O)O (stereo unspecified)	> 100 µM	61.8 µM	> 100 µM	> 100 µM		> 100 µM	> 100 µM	> 100 µM	51.6 µM	> 100 µM		

SMILES	TGI [1]	TGI [2]	TGI [3]	TGI [4]	TGI [5]	TGI [6]	TGI [7]	TGI [8]	TGI [9]	TGI [10]	GI50 [10]	GI50 [2]
COc1ccc(-c2c(C#N)c(N)[nH]c(=S)c2C#N)cc1	> 100 µM		> 100 µM	> 100 µM	> 100 µM	> 100 µM	> 100 µM		66.6 µM	> 100 µM		
O=C(COc1cc(=O)oc2ccccc12)c1ccccc1	76.7 µM	> 100 µM	34.1 µM	48.9 µM	32.5 µM		> 100 µM	> 100 µM	73.7 µM	> 100 µM		
O=C1OC(C(O)CO)C(C(O)CO)OC1=O (stereo unspecified)	> 10 µM		> 10 µM	> 10 µM	> 10 µM	> 10 µM	> 10 µM	> 10 µM	> 10 µM	> 10 µM		
CN(C)CCNC(=O)c1cccc2c1C(=O)c1ccccc1C2=O	> 76.5 µM	> 100 µM	> 100 µM	> 100 µM	> 100 µM		> 84.2 µM	98.9 µM		> 100 µM		
CCC1c2[nH]c3ccccc3c2C[C@H]2C(=O)NC(C)C(=O)N12 (stereo partly specified)	> 100 µM	> 100 µM	> 100 µM	> 100 µM	> 100 µM	> 100 µM	> 100 µM		> 100 µM	> 100 µM		
Nc1nnc(N)n1N	> 100 µM	> 100 µM	> 100 µM	> 100 µM	> 100 µM		> 100 µM	> 100 µM		> 100 µM		
COc1ccc(-c2cc(-c3ccc(C)cc3)n(C3OC(COC(C)=O)C(OC(C)=O)C(OC(C)=O)C3OC(C)=O)c(=S)c2C#N)cc1 (stereo unspecified)	> 100 µM	92 µM	> 100 µM	> 100 µM	> 100 µM	> 100 µM	> 100 µM		> 100 µM	> 100 µM		
Cc1[nH]c(=O)nc(N/N=C/c2c3ccccc3c(Cl)c3ccccc23)c1C(=O)Nc1ccc(Cl)cc1	> 100 µM	> 100 µM	> 100 µM	> 100 µM	> 100 µM	> 100 µM	> 100 µM	89.3 µM				
COc1ccc(C2=C(OC(C)=O)c3cccn3-c3ccc(Cl)cc3S2)cc1	> 10 µM	> 10 µM			> 10 µM	> 10 µM	> 10 µM	> 10 µM		9.75 µM		
Cc1[nH]n(-c2nc(-c3ccccc3)cc(=O)[nH]2)c(=O)c1CCO	> 100 µM		> 100 µM	> 100 µM	> 100 µM	> 100 µM	> 100 µM	> 100 µM	> 100 µM	> 100 µM		
COC(=O)c1ccc(OCCn2nnc(C(=O)NN)c2C(=O)NN)cc1			> 100 µM	> 100 µM	> 100 µM	> 100 µM	> 100 µM	> 100 µM		> 100 µM		
CCCC(=O)OCC1OC(n2cc(F)c(=O)[nH]c2=O)CC1OC(=O)CCC (stereo unspecified)	> 10 µM		> 10 µM	> 10 µM	> 7.85 µM	> 10 µM	> 10 µM	> 10 µM	> 10 µM	> 10 µM		
O=C(NC(=S)Nc1ccc(Br)cc1)c1ccc2c(c1)Sc1ccccc1O2	> 100 µM	19.3 µM	> 100 µM	> 100 µM		> 100 µM	> 100 µM	> 100 µM	> 100 µM	> 100 µM		
C(=N\NC1=NCCCCN1)/c1ccc2ccccc2c1	> 100 µM	> 100 µM	58.6 µM	> 100 µM		> 100 µM	87.5 µM	> 100 µM	> 100 µM	> 100 µM		
C/C(Cc1ccc2c(c1)OCO2)=N\N=c1\sc2ccccc2n1C	> 100 µM		> 100 µM	> 100 µM	> 100 µM	> 100 µM	> 100 µM	> 100 µM	> 100 µM	> 100 µM		
CC1=C[P+](c2ccccc2)(c2ccccc2)c2ccccc2O1	44.9 µM	> 100 µM	> 100 µM	> 100 µM	> 100 µM	17.1 µM	> 100 µM		11.6 µM	10.8 µM		
N=C1OC(CN2CCN(c3ccccc3)CC2)CN1C(=O)Nc1ccccc1 (stereo unspecified)	> 100 µM		> 100 µM	> 100 µM	> 100 µM	> 100 µM	> 100 µM	> 100 µM	> 100 µM	> 100 µM		
Nc1cc(CO)cc(Nc2c3ccccc3nc3ccccc23)c1	31.3 µM	34.5 µM	28.3 µM		31.7 µM	36 µM	34.4 µM	> 100 µM	67.8 µM	29.8 µM		
O=c1cc(NNc2ccccc2)[nH]c(=O)[nH]1	> 100 µM		31.9 µM	35.5 µM		36.3 µM	30 µM	> 100 µM	> 100 µM	32.8 µM		
CCCCn1c(=O)[nH]c2c(N)ncnc21	> 100 µM	> 100 µM	> 100 µM	> 100 µM		> 100 µM	> 100 µM	> 100 µM	> 100 µM			
COP(=O)(OC)C(N)Cc1c[nH]c2ccccc12 (stereo unspecified)	> 100 µM	> 100 µM	> 100 µM	> 100 µM	> 100 µM	> 100 µM	> 100 µM		> 100 µM			
O=C1/C(=C/c2cccc([N+](=O)[O-])c2)N=C(c2ccccc2)N1c1nc2ccc(Sc3ccccc3)cc2[nH]1	> 100 µM	> 100 µM	> 100 µM	> 100 µM	> 100 µM	> 100 µM	> 100 µM		> 100 µM	> 100 µM		
